In PubChem BioAssay AID1918937 (Molecular Pharmacology Branch, DTP, NCI, 2023):

System: 521955-158-R2-J5-PDC complex spheroid viability
Test: Anticancer human tumor 521955-158-R2-J5-PDC patient-derived pancreatic carcinoma cell line growth inhibition
Details: for IC50: curve of first compound; for viability, T/C: stronger effect = lower value
Excerpt: Multicellular complex tumor spheroid response to LSD1 Inhibitor Iadademstat in combination with a variety of drugs and investigational agents in selected tumor cell lines
The current study was undertaken to assess response to LSD1 inhibitors in combination with standard-of-care drugs and investigational agents in solid tumor complex spheroid models as well as in the K-562 leukemia. Complex spheroids include a stromal component modeled by human endothelial cells (HUVEC) and fibroblasts modeled by human mesenchymal stem cells (MSCs). The concentration ranges selected for each drug and investigational agent were based upon clinically achievable concentrations if the clinical Cmax of the agent was known.
Compounds. The drugs and investigational agents used in this study are listed on Table 1. All of the agents used, including staurosporine (NSC755774) and gemcitabine (NSC613327), were obtained from the Developmental Therapeutics Program, NCI. FDA-approved anticancer drugs are available from the NCI at http://dtp.nci.nih.gov/branches/dscb/oncology_drugset_explanation.html. Drugs and investigational agents were >95% pure by proton nuclear magnetic resonance (NMR) and liquid chromatography/mass spectrometry (LC/MS). Stock solutions were prepared at 400x in DMSO, stored at -70 degrees C, and diluted in fresh medium prior to their use. The final concentration of DMSO in cell culture wells never exceeded 0.25% (v/v). The FDA-approved anticancer drug set is available from the Developmental Therapeutics Program at https://dtp.cancer.gov/organization/dscb/obtaining/available_plates.htm. All drugs and investigational agents were tested over a range starting from a high concentration at or near the clinical Cmax and decreasing in half-log increments. If the clinical Cmax for an agent had not been determined, the highest concentration tested was 10 microM.
Cell Lines. The patient-derived cancer cell (PDC) lines: 292921-168-R-J2-PDC, K24384-001-R-PDC, and 521955-158-R2-J5-PDC pancreatic carcinomas, 556581-035-R-J1 ovarian carcinoma, 324938-238-R-J1-PDC, 855422-203-R-J1-PDC and 883617-216-R-J1-PDC urothelial bladder carcinomas, 743489-274-T-PDC renal cell carcinoma, 138582-R-J1 Merkel cell tumor, K60290-347-R-J1 and K57222-313-R-J1-PDC glioblastomas, 653999-131-R-J2-PDC, LG0703-F948-PDC, and 349418-098-R-PDC non-small cell lung carcinomas, 885512-296-R-J2-PDC, 171881-019-R-J1-PDC breast carcinomas and 186277-243-T-J2-PDC and 233499-124-R-J2-PDC colon carcinomas were obtained from the NCI Patient-Derived Models Repository (PDMR, https://pdmr.cancer.gov). The established cell lines NCI/ADR-RES (RRID:CVCL_14520 and OVCAR-5 (RRID:CVCL_1628) ovarian carcinomas, 786-O (RRID:CVCL_1051) and A498 (RRID:CVCL_A498) renal cell carcinoma, NCI-H211 (ATCC, cat. CRL-5824; RRID:CVCL_1529), NCI-H196 (ATCC, cat. CRL-5823, RRID:CVCL_1509), SW 1271 (ATCC, cat. CRL-2177, RRID:CVCL_1716) and NCI-H1876 (ATCC, cat. CRL-5902, RRID:CVCL_1503) small cell lung carcinomas, MDA-MB-231 (RRID:CVCL_0062) and MDA-MB-468 (RRID:CVCL_0419)breast carcinomas (10-12). Pooled donor human umbilical vein endothelial cells (HUVEC, Lonza, cat. CC-2519) and human mesenchymal stem cells (hMSC, Lonza, cat. PT-2501) were purchased from Lonza (Walkersville, MD).
Cell Culture. All cells were maintained in an incubator at 37 degrees C and 5% CO2 with 95% humidity. The PDC lines were cultured according to standard operating procedures established by the NCI PDMR (https://pdmr.cancer.gov). Briefly all PDCs were thawed and cultured in Matrigel-coated flasks prepared with a working solution of 1X Ham's F-12 nutrient mix, without supplementation (Invitrogen, Waltham, MA, cat. 11765054), 100 U/mL penicillin-streptomycin (Invitrogen, cat. 15140122), and 2.5% Matrigel (Corning Inc., Corning, NY, cat. 354248) for the first three passages. […]
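Further: spheroids exposed to agents for seven days.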
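Wherever viability, T/C is given: percent of DMSO vehicle control luminescence viability.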

**Q.** Which IC50 (second compound 0.1 µM) does the source give for CC[C@@]1(O)C(=O)OCc2c1cc1n(c2=O)Cc2cc3c(CN(C)C)c(O)ccc3nc2-1 + NC1CC1c1ccc(-c2cccc(O)c2)cc1 here?
**A.** 6.03 nM

**Q.** What about the IC50 (second compound 0.316 µM) of the same compound?
**A.** 6.63 nM

**Q.** And the IC50 (second compound 1 µM)?
**A.** 6.15 nM

**Q.** What about the IC50 (second compound 3.16 µM) of the same compound?
**A.** 6.19 nM

**Q.** And the IC50 (second compound 10 µM)?
**A.** 6.25 nM

**Q.** And the viability, T/C (second compound 0.1 µM, first compound 0.000316 µM)?
**A.** 97.3%

**Q.** What about the viability, T/C (second compound 0.1 µM, first compound 0.001 µM) of the same compound?
**A.** 106%

**Q.** And the viability, T/C (second compound 0.1 µM, first compound 0.00316 µM)?
**A.** 77.3%

**Q.** What about the viability, T/C (second compound 0.1 µM, first compound 0.01 µM) of the same compound?
**A.** 28.3%

**Q.** And the viability, T/C (second compound 0.1 µM, first compound 0.0316 µM)?
**A.** 15.6%

**Q.** And the viability, T/C (second compound 0.1 µM, first compound 0.1 µM)?
**A.** 11.7%

**Q.** And the viability, T/C (second compound 0.316 µM, first compound 0.000316 µM)?
**A.** 94.8%

**Q.** What about the viability, T/C (second compound 0.316 µM, first compound 0.001 µM) of the same compound?
**A.** 94.9%

**Q.** What about the viability, T/C (second compound 0.316 µM, first compound 0.00316 µM) of the same compound?
**A.** 80.5%

**Q.** And the viability, T/C (second compound 0.316 µM, first compound 0.01 µM)?
**A.** 33.1%

**Q.** What about the viability, T/C (second compound 0.316 µM, first compound 0.0316 µM) of the same compound?
**A.** 14.6%

**Q.** And the viability, T/C (second compound 0.316 µM, first compound 0.1 µM)?
**A.** 13.1%

**Q.** What about the viability, T/C (second compound 1 µM, first compound 0.000316 µM) of the same compound?
**A.** 80.2%

**Q.** What about the viability, T/C (second compound 1 µM, first compound 0.001 µM) of the same compound?
**A.** 93.3%

**Q.** And the viability, T/C (second compound 1 µM, first compound 0.00316 µM)?
**A.** 78.2%

**Q.** What about the viability, T/C (second compound 1 µM, first compound 0.01 µM) of the same compound?
**A.** 29.1%

**Q.** And the viability, T/C (second compound 1 µM, first compound 0.0316 µM)?
**A.** 16.4%

**Q.** What about the viability, T/C (second compound 1 µM, first compound 0.1 µM) of the same compound?
**A.** 12.7%

**Q.** And the viability, T/C (second compound 3.16 µM, first compound 0.000316 µM)?
**A.** 83%

**Q.** And the viability, T/C (second compound 3.16 µM, first compound 0.001 µM)?
**A.** 86.8%

**Q.** And the viability, T/C (second compound 3.16 µM, first compound 0.00316 µM)?
**A.** 71.9%

**Q.** What about the viability, T/C (second compound 3.16 µM, first compound 0.01 µM) of the same compound?
**A.** 33.8%

**Q.** And the viability, T/C (second compound 3.16 µM, first compound 0.0316 µM)?
**A.** 18.5%

**Q.** And the viability, T/C (second compound 3.16 µM, first compound 0.1 µM)?
**A.** 12.2%

**Q.** What about the viability, T/C (second compound 10 µM, first compound 0.000316 µM) of the same compound?
**A.** 103%

**Q.** What about the viability, T/C (second compound 10 µM, first compound 0.001 µM) of the same compound?
**A.** 92.3%

**Q.** What about the viability, T/C (second compound 10 µM, first compound 0.00316 µM) of the same compound?
**A.** 68.7%

**Q.** And the viability, T/C (second compound 10 µM, first compound 0.01 µM)?
**A.** 37.7%

**Q.** And the viability, T/C (second compound 10 µM, first compound 0.0316 µM)?
**A.** 21.1%

**Q.** What about the viability, T/C (second compound 10 µM, first compound 0.1 µM) of the same compound?
**A.** 19.7%

**Q.** Which IC50 (second compound 0.1 µM) does the source give for COc1cc(C2c3cc4c(cc3C(OC3OC5COC(C)OC5C(O)C3O)C3COC(=O)C23)OCO4)cc(OC)c1O (stereo not given) + NC1CC1c1ccc(-c2cccc(O)c2)cc1 here?
**A.** 198 nM

**Q.** And the IC50 (second compound 0.316 µM)?
**A.** 227 nM

**Q.** What about the IC50 (second compound 1 µM) of the same compound?
**A.** 249 nM

**Q.** And the IC50 (second compound 3.16 µM)?
**A.** 181 nM

**Q.** And the IC50 (second compound 10 µM)?
**A.** 265 nM

**Q.** What about the viability, T/C (second compound 0.1 µM, first compound 0.00949 µM) of the same compound?
**A.** 86.6%

**Q.** And the viability, T/C (second compound 0.1 µM, first compound 0.03 µM)?
**A.** 94.8%

**Q.** And the viability, T/C (second compound 0.1 µM, first compound 0.0949 µM)?
**A.** 66.2%

**Q.** And the viability, T/C (second compound 0.1 µM, first compound 0.3 µM)?
**A.** 39.9%

**Q.** And the viability, T/C (second compound 0.1 µM, first compound 0.949 µM)?
**A.** 23%

**Q.** What about the viability, T/C (second compound 0.1 µM, first compound 3 µM) of the same compound?
**A.** 15.3%

**Q.** And the viability, T/C (second compound 0.316 µM, first compound 0.00949 µM)?
**A.** 87.3%

**Q.** What about the viability, T/C (second compound 0.316 µM, first compound 0.03 µM) of the same compound?
**A.** 83.6%

**Q.** And the viability, T/C (second compound 0.316 µM, first compound 0.0949 µM)?
**A.** 66.3%

**Q.** What about the viability, T/C (second compound 0.316 µM, first compound 0.3 µM) of the same compound?
**A.** 44.6%

**Q.** What about the viability, T/C (second compound 0.316 µM, first compound 0.949 µM) of the same compound?
**A.** 27.8%

**Q.** And the viability, T/C (second compound 0.316 µM, first compound 3 µM)?
**A.** 19.2%

**Q.** And the viability, T/C (second compound 1 µM, first compound 0.00949 µM)?
**A.** 84.2%

**Q.** What about the viability, T/C (second compound 1 µM, first compound 0.03 µM) of the same compound?
**A.** 87.2%

**Q.** And the viability, T/C (second compound 1 µM, first compound 0.0949 µM)?
**A.** 64%

**Q.** And the viability, T/C (second compound 1 µM, first compound 0.3 µM)?
**A.** 47.1%

**Q.** And the viability, T/C (second compound 1 µM, first compound 0.949 µM)?
**A.** 30.9%

**Q.** And the viability, T/C (second compound 1 µM, first compound 3 µM)?
**A.** 20.2%

**Q.** What about the viability, T/C (second compound 3.16 µM, first compound 0.00949 µM) of the same compound?
**A.** 89.4%

**Q.** What about the viability, T/C (second compound 3.16 µM, first compound 0.03 µM) of the same compound?
**A.** 88.5%

**Q.** What about the viability, T/C (second compound 3.16 µM, first compound 0.0949 µM) of the same compound?
**A.** 53.8%

**Q.** And the viability, T/C (second compound 3.16 µM, first compound 0.3 µM)?
**A.** 44.4%

**Q.** And the viability, T/C (second compound 3.16 µM, first compound 0.949 µM)?
**A.** 30.3%

**Q.** And the viability, T/C (second compound 3.16 µM, first compound 3 µM)?
**A.** 19.8%

**Q.** And the viability, T/C (second compound 10 µM, first compound 0.00949 µM)?
**A.** 95.9%

**Q.** What about the viability, T/C (second compound 10 µM, first compound 0.03 µM) of the same compound?
**A.** 83.6%

**Q.** What about the viability, T/C (second compound 10 µM, first compound 0.0949 µM) of the same compound?
**A.** 67.5%

**Q.** What about the viability, T/C (second compound 10 µM, first compound 0.3 µM) of the same compound?
**A.** 49.8%

**Q.** What about the viability, T/C (second compound 10 µM, first compound 0.949 µM) of the same compound?
**A.** 30.6%

**Q.** What about the viability, T/C (second compound 10 µM, first compound 3 µM) of the same compound?
**A.** 27%
